In patent US9247759B2, “Identification of human T2R receptors that respond to bitter compounds that elicit the bitter taste in compositions, and the use thereof in assays to identify compounds that inhibit (block) bitter taste in compositions and use thereof” (SENOMYX, INC., priority 2007, dated 2016):
Where two headings read alike, the source gives them in different places.

Target: hT2R8 (Homo sapiens (Human), UniProt Q9NYW2)
Test: hT2R8 antagonist high-throughput FLIPR assay, stable cell line with G16g44, agonist andrographolide
Format: cell-based
Outline: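 Antagonist screen: compounds co-applied with agonist andrographolide at 200 μM, a dose giving 70–80% of maximal hT2R8 activation. Fluorescence measured by FLIPR in a stable HEK293 line expressing both hT2R8 and the promiscuous G16g44 protein.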

[1] = read-out: IC50 on hT2R8 bitter receptor
[2] = table after Example 12-37, read-out: hT2R8 IC50
[3] = table after Example 10-97, read-out: hT2R8 IC50

Chain of hT2R8 (Q9NYW2 whole entry): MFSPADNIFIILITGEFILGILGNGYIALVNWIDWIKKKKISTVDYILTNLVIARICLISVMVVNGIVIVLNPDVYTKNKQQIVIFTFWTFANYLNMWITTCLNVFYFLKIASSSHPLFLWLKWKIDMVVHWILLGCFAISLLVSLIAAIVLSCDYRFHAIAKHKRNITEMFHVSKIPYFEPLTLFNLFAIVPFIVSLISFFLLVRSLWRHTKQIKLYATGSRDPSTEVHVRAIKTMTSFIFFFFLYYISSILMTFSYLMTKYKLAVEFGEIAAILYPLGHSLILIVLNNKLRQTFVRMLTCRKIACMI

With `Cc1noc(C)c1Cn1cc(NCc2ccccc2C#N)cn1` [Example 9-2, 2-((1-((3,5-dimethylisoxazol-4-yl)methyl)-1H-pyrazol-4-ylamino)methyl)benzonitrile] the IC50 [1] was over 30000 nM.
With `Cc1noc(C)c1Cn1cc(N2C(=O)[C@@H](C)N(Cc3ccccc3)C2=O)cn1` [Example 12-37, (R)-1-benzyl-3-(1-((3,5-dimethylisoxazol-4-yl)methyl)-1H-pyrazol-4-yl)-5-methylimidazolidine-2,4-dione] the IC50 [1] was 10 nM.
With `Cc1noc(C)c1Cn1cc(N2C(=O)N(Cc3ccc(C(=O)O)cc3)C(C)(C)C2=O)cn1` [Example 12-89, 4-((3-(1-((3,5-dimethylisoxazol-4-yl)methyl)-1H-pyrazol-4-yl)-5,5-dimethyl-2,4-dioxoimidazolidin-1-yl)methyl)benzoic acid] the IC50 [2] was 2310 nM.
`Cc1cccc(C)c1CN1C(=O)N(c2cnn(Cc3c(C)noc3C)c2)C(=O)C1(C)C` [Example 12-85, 1-(2,6-dimethylbenzyl)-3-(1-((3,5-dimethylisoxazol-4-yl)methyl)-1H-pyrazol-4-yl)-5,5-dimethylimidazolidine-2,4-dione] gave an IC50 [2] of 1580 nM.
For `COc1cc(CC(=O)Nc2cnn(Cc3c(C)noc3C)c2)cc(OC)c1` [Example 4-32, 2-(3,5-dimethoxyphenyl)-N-(1-((3,5-dimethylisoxazol-4-yl)methyl)-1H-pyrazol-4-yl)acetamide], the IC50 (Table A, read-out: hT2R8 IC50) was 960 nM.
For `Cc1noc(C)c1Cn1cc(N2CN(Cc3ccccc3)CN(CCc3ccccc3)C2=O)cn1` [Example 9-7, 5-benzyl-1-(1-((3,5-dimethylisoxazol-4-yl)methyl)-1H-pyrazol-4-yl)-3-phenethyl-1,3,5-triazinan-2-one], the IC50 [1] was 2640 nM and the IC50 [3] was 6580 nM.
`COc1ccc(C(=O)Nc2cnn(Cc3c(C)noc3C)c2)cc1` [Example 4-17, N-(1-((3,5-dimethylisoxazol-4-yl)methyl)-1H-pyrazol-4-yl)-4-methoxybenzamide] gave an IC50 (Table A, read-out: hT2R8 IC50) of 260 nM.
`Cc1noc(C)c1Cn1cc(N2C(=O)N(Cc3ccccc3O)C(C)(C)C2=O)cn1` [Example 12-39, 3-(1-((3,5-dimethylisoxazol-4-yl)methyl)-1H-pyrazol-4-yl)-1-(2-hydroxybenzyl)-5,5-dimethylimidazolidine-2,4-dione] was tested, and the IC50 [2] was 70 nM.
Work on `COc1cccc(CNC(=O)CC2NC(=O)N(c3cnn(Cc4c(C)noc4C)c3)C2=O)c1` (stereo not shown) [Example 10-50, 2-(1-(1-((3,5-dimethylisoxazol-4-yl)methyl)-1H-pyrazol-4-yl)-2,5-dioxoimidazolidin-4-yl)-N-(3-methoxybenzyl)acetamide] yielded an IC50 [1] of 1700 nM and an IC50 [3] of 1770 nM.
`COc1cccc(C(=O)Nc2nnn(Cc3c(C)noc3C)n2)c1` [Example 10-39, N-(2-((3,5-dimethylisoxazol-4-yl)methyl)-2H-tetrazol-5-yl)-3-methoxybenzamide] was tested, and the IC50 [1] was 1870 nM.
Compound `Cc1noc(C)c1Cn1cc(NC(=O)C(CO)c2ccccc2)cn1` (stereo not shown) [Example 4-40, N-(1-((3,5-dimethylisoxazol-4-yl)methyl)-1H-pyrazol-4-yl)-3-hydroxy-2-phenylpropanamide] has an IC50 (Table A, read-out: hT2R8 IC50) of 960 nM.
`Cc1noc(C)c1Cn1cc(N2CNCN(Cc3ccccc3)C2=O)cn1` [Example 9-6, 1-benzyl-3-(1-((3,5-dimethylisoxazol-4-yl)methyl)-1H-pyrazol-4-yl)-1,3,5-triazinan-2-one] showed an IC50 [1] of 5840 nM and an IC50 [3] of 6030 nM.
For `Cc1noc(C)c1Cn1cc(N2C(=O)N(CCc3cc(F)cc(F)c3)C(C)(C)C2=O)cn1` [Example 12-70, 1-(3,5-difluorophenethyl)-3-(1-((3,5-dimethylisoxazol-4-yl)methyl)-1H-pyrazol-4-yl)-5,5-dimethylimidazolidine-2,4-dione], the IC50 [2] was 400 nM.
`Cc1noc(C)c1Cn1cc(N2C(=O)CN(CC3CCCO3)C2=O)cn1` (stereo not shown) [Example 10-73] showed an IC50 [1] of 1400 nM and an IC50 [3] of 1360 nM.
Compound `COc1ccccc1S(=O)(=O)Nc1cnn(Cc2c(C)noc2C)c1` [Example 4-103, N-(1-((3,5-dimethylisoxazol-4-yl)methyl)-1H-pyrazol-4-yl)-2-methoxybenzenesulfonamide] has an IC50 (Table A, read-out: hT2R8 IC50) of 3800 nM.
